Data: patent publication US11845760B2, “PRMT5 inhibitors” (AMGEN INC., priority 2020, dated 2023)
Read-outs that look alike come from different tables or passages of the source.

Columns and labels:
HCT116 MTAP null cells = experiment: HCT116 MTAP null cell line proliferation (CellTiter-Glo cell viability, 6 days); type: cell-based; details: read-out: HCT-116 MTAP null IC50
How it was run: (§1)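 Isogenic HCT116 pair (both MTAP alleles knocked out vs parent) in RPMI 1640 + 10% FBS, seeded overnight at 37° C, 5% CO2, then exposed 6 days to 8- or 9-point 1:3 dilutions from 1 or 10 μM. CellTiter-Glo luminescence; IC50 from sigmoidal fit, Hill slope fixed −1, top 100%, or 4-parameter logistic.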

HCT116 WT cells = experiment: HCT116 WT cell line proliferation (CellTiter-Glo cell viability, 6 days); type: cell-based; details: read-out: HCT-116 WT IC50
How it was run: as §1

[1] = HCT116-MTAP null, 144 h, HCT116 MTAP null cells, 6 days of treatment, CellTiter-Glo cell viability
[2] = Homo sapiens, HCT-116, 144 h, HCT116 WT (parent) cells, 6 days of treatment, CellTiter-Glo cell viability
[3] = HCT116 MTAP null cells, 6 days of treatment, CellTiter-Glo cell viability
[4] = HCT116 WT (parent) cells, 6 days of treatment, CellTiter-Glo cell viability

Compound	IC50 (HCT116 MTAP null cells; [1]) [µM]	IC50 (HCT116 WT cells; [2]) [µM]	IC50 (HCT116 MTAP null cells; [3]) [µM]	IC50 (HCT116 WT cells; [4]) [µM]	further results
C[C@@H]1COC[C@H](c2ccc(OC(F)F)nn2)N1C(=O)c1cc2c3c(c(N)nc2cc1F)[C@@H](C)OC3 [Example 562, ((3R)-4-amino-7-fluoro-3-methyl-1,3-dihydrofuro[3,4-c]quinolin-8-yl)((3S,5R)-3-(6-(difluoromethoxy)-3-pyridazinyl)-5-methyl-4-morpholinyl)methanone]	0.006	0.084	–	–	–
C[C@@H]1COC[C@H](c2ccc(OCC(F)(F)F)nn2)N1C(=O)c1cc2c3c(c(N)nc2cn1)COC3 [Example 563, (4-amino-1,3-dihydrofuro[3,4-c][1,7]naphthyridin-8-yl)((3R,5S)-3-methyl-5-(6-(2,2,2-trifluoroethoxy)-3-pyridazinyl)-4-morpholinyl)methanone]	0.032	1.06	–	–	–
C[C@@H]1COC[C@H](c2ccc(OCCC(F)(F)F)nn2)N1C(=O)c1cc2c3c(c(N)nc2cn1)COC3 [Example 564, (4-amino-1,3-dihydrofuro[3,4-c][1,7]naphthyridin-8-yl)((3R,5S)-3-methyl-5-(6-(3,3,3-trifluoropropoxy)-3-pyridazinyl)-4-morpholinyl)methanone]	0.028	0.708	–	–	–
C[C@@H]1COC[C@H](c2ccc(OCCC(F)(F)F)nn2)N1C(=O)c1cc2c3c(c(N)nc2cc1F)[C@@H](C)OC3 [Example 565, ((3R)-4-amino-7-fluoro-3-methyl-1,3-dihydrofuro[3,4-c]quinolin-8-yl)((3R,5S)-3-methyl-5-(6-(3,3,3-trifluoropropoxy)-3-pyridazinyl)-4-morpholinyl)methanone]	0.006	0.072	–	–	–
Nc1nc2cnc(C(=O)N3CC[S+]([O-])C[C@@H]3c3ccc(C(F)(F)F)cc3)cc2c2c1COC2 (stereo partly drawn) [Example 623, (4-Amino-1,3-dihydrofuro[3,4-c][1,7]naphthyridin-8-yl)((3S)-1-oxido-3-(4-(trifluoromethyl)phenyl)thiomorpholino)methanone]	–	–	–	–	IC50 (HCT116 MTAP null cells; HCT116-MTAP null, 144 h): 0.843 µM; IC50 (HCT116 WT cells; Homo sapiens, HCT-116, 144 h): 25.7 µM
CC(=O)N1CCN(C(=O)c2cc3c4c(c(N)nc3cn2)COC4)[C@@H](c2ccc(C(F)(F)F)cc2)C1 [Example 624, (S)-1-(4-(4-Amino-1,3-dihydrofuro[3,4-c][1,7]naphthyridine-8-carbonyl)-3-(4-(trifluoromethyl)phenyl)piperazin-1-yl)ethan-1-one]	0.343	8.57	–	–	–
Nc1nc2ccc(C(=S)N3CCOC[C@@H]3c3ccc(C(F)(F)F)cc3)cc2c2c1COC2 [Example 625, (S)-(4-amino-1,3-dihydrofuro[3,4-c]quinolin-8-yl)(3-(4-(trifluoromethyl)phenyl)morpholino)methanethione]	0.882	7.26	–	–	–
Nc1nc2cnc(C(=S)N3CCOC[C@@H]3c3ccc(C(F)(F)F)cc3)cc2c2c1COC2 [Example 626, (4-amino-1,3-dihydrofuro[3,4-c][1,7]naphthyridin-8-yl)((3S)-3-(4-(trifluoromethyl)phenyl)-4-morpholinyl)methanethione]	0.394	12.9	–	–	–
(4-amino-1-methyl-1H- pyrazolo[4,3- c][1,7]naphthyridin-8- yl)((3R)-3-(4- (trifluoromethyl)benzyl)-1- pyrrolidinyl)methanone and (4-amino-1-methyl-1H- pyrazolo[4,3- c][1,7]naphthyridin-8- yl)((3S)-3-(4- (trifluoromethyl)benzyl)-1- pyrrolidinyl)methanone [Example 432]	–	–	0.616	22.7	–
(4-amino-1-methyl-1H- pyrazolo[4,3- c][1,7]naphthyridin-8- yl)((3R)-3-(4- (trifluoromethyl)phenoxy)-1- pyrrolidinyl)methanone and (4-amino-1-methyl-1H- pyrazolo[4,3- c][1,7]naphthyridin-8- yl)((3S)-3-(4- (trifluoromethyl)phenoxy)-1- pyrrolidinyl)methanone [Example 433]	–	–	0.421	14.6	–
(4-amino-7-chloro-1,3- dihydrofuro[3,4-c]quinolin-8- yl)((3R,4S)-3-ethyl-4-(4- methylphenyl)-1- pyrrolidinyl)methanone and (4-amino-7-chloro-1,3- dihydrofuro[3,4-c]quinolin-8- yl)((3S,4R)-3-ethyl-4-(4- methylphenyl)-1- pyrrolidinyl)methanone [Example 424]	–	–	0.345	5.69	–
(4-amino-7-fluoro-1,3- dihydrofuro[3,4-c]quinolin-8- yl)((3R)-3-hydroxy-3-(4- (trifluoromethyl)phenyl)-1- pyrrolidinyl)methanone and (4-amino-7-fluoro-1,3- dihydrofuro[3,4-c]quinolin-8- yl)((3S)-3-hydroxy-3-(4- (trifluoromethyl)phenyl)-1- pyrrolidinyl)methanone [Example 441]	–	–	0.683	15.6	–
(4-amino-7-fluoro-1-methyl- 1H-pyrazolo[4,3-c]quinolin- 8-yl)((4R)-3,3-dimethyl-4-(4- (trifluoromethyl)phenyl)-1- pyrrolidinyl)methanone and (4-amino-7-fluoro-1-methyl- 1H-pyrazolo[4,3-c]quinolin- 8-yl)((4S)-3,3-dimethyl-4-(4- (trifluoromethyl)phenyl)-1- pyrrolidinyl)methanone [Example 445]	–	–	0.011	0.24	–
